Results as given in the OligoGym collection.
After the bases stand the sugars from the 5' end (letter, count) and the backbone: PS all phosphorothioate, else s phosphorothioate and o phosphodiester by linkage. Methylation of C is not given here. e = 2'-O-(2-methoxyethyl) (MOE); k = constrained ethyl (cEt); d = 2'-deoxy (DNA); m = 2'-O-methyl

Molecular target: HSD17B13
Conditions: ASO, HepaRG

Sequence | target mRNA inhibition (1 µM) | also measured
GTCAGTAGAGAGCATA (sugars k3 d10 k3, PS) | 85% | target mRNA inhibition (0.02 µM): 0%; target mRNA inhibition (0.078 µM): 0%; target mRNA inhibition (0.313 µM): 27%; target mRNA inhibition (1.25 µM): 78%; target mRNA inhibition (5 µM): 74%
AATACATTAGCAAGCT (sugars k3 d10 k3, PS) | 45% | 
AGTGCTTAGTTCATTG (sugars k3 d10 k3, PS) | 84% | target mRNA inhibition (0.02 µM): 0%; target mRNA inhibition (0.078 µM): 0%; target mRNA inhibition (0.313 µM): 31%; target mRNA inhibition (1.25 µM): 58%; target mRNA inhibition (5 µM): 84%
TCCAATACAGGCCATA (sugars k3 d10 k3, PS) | 62% | 
TGGTAAGGAGTAGTGG (sugars k3 d10 k3, PS) | 34% | 
TATACGATGGAACAAA (sugars k3 d10 k3, PS) | 4% | 
GATTGAATTCACTATC (sugars k3 d10 k3, PS) | 0% | 
GCAGAGACAGTAGATT (sugars k3 d10 k3, PS) | 63% | 
TATTCTGTGGCATGGC (sugars kkdddddddddkekek, PS) | 57% | 
ATGAGGTTTTGATACC (sugars k3 d9 k3 e1, PS) | 20% | 
ATAAGGCCGATTCATG (sugars k3 d10 k3, PS) | 38% | 
TTGAATAGCAAGCCAA (sugars k3 d10 k3, PS) | 31% | 
CGAAACTATTCATATC (sugars k3 d10 k3, PS) | 66% | 
CTATGCAAGCCTTCAC (sugars k3 d10 k3, PS) | 19% | 
ATCCUATATACATCCA (sugars k3 d1 m1 d8 k3, PS) | 64% | 
TGGTAACGGTGATCAA (sugars k3 d9 k3 e1, PS) | 35% | 
TAAGCAGAATTGTGAA (sugars kkdddddddddkekek, PS) | 29% | 
TAAACCTTCCCTGTGT (sugars k3 d10 k3, PS) | 17% | 
CTTGGAAGGAGACTGG (sugars k3 d10 k3, PS) | 60% | 
CTTTTAGTCAGGTAGA (sugars k3 d10 k3, PS) | 33% | 
AAATTGATACACCAAT (sugars k3 d10 k3, PS) | 14% | 
AGTGCATCTTAAGATA (sugars k3 d10 k3, PS) | 57% | 
CTAAACATCTCTGGGA (sugars kkdddddddddkekek, PS) | 29% | 
CTAAATTTCAGTACCC (sugars k3 d10 k3, PS) | 33% | 
AGTTAATAGGACTAAA (sugars k3 d10 k3, PS) | 13% | 

Sequence | target mRNA inhibition (1 µM) | also measured
GTAATAGCCAGTACAG (sugars kkdddddddddkekek, PS) | 47% | 
TAGCTTTTGTCCACCT (sugars k3 d9 k3 e1, PS) | 65% | 
AAATAGAGTCGGTCAC (sugars kkdddddddddkekek, PS) | 50% | 
GTTAGTATAGTTATCT (sugars k3 d10 k3, PS) | 66% | target mRNA inhibition (0.02 µM): 0%; target mRNA inhibition (0.078 µM): 17%; target mRNA inhibition (0.313 µM): 40%; target mRNA inhibition (1.25 µM): 74%; target mRNA inhibition (5 µM): 86%
ATTTAGCATTGCCTGT (sugars k3 d10 k3, PS) | 10% | 
ACAGTAAAATTATGCC (sugars k3 d10 k3, PS) | 73% | target mRNA inhibition (0.02 µM): 0%; target mRNA inhibition (0.078 µM): 0%; target mRNA inhibition (0.313 µM): 4%; target mRNA inhibition (1.25 µM): 50%; target mRNA inhibition (5 µM): 68%
GAAAACTCAGCCAGCA (sugars k3 d10 k3, PS) | 78% | target mRNA inhibition (0.02 µM): 0%; target mRNA inhibition (0.078 µM): 2%; target mRNA inhibition (0.313 µM): 51%; target mRNA inhibition (1.25 µM): 73%; target mRNA inhibition (5 µM): 75%
TAATGGTAAACTGTAT (sugars k3 d10 k3, PS) | 32% | 
GGAATGCTACTTGAAC (sugars k3 d10 k3, PS) | 63% | 
GAAATCTTGTGTAACT (sugars k3 d10 k3, PS) | 69% | target mRNA inhibition (0.02 µM): 0%; target mRNA inhibition (0.078 µM): 4%; target mRNA inhibition (0.313 µM): 37%; target mRNA inhibition (1.25 µM): 71%; target mRNA inhibition (5 µM): 87%
ATGTTAGGACCCAGTC (sugars k3 d10 k3, PS) | 60% | 
TTTATTGGTATGGTAA (sugars k3 d10 k3, PS) | 25% | 
TCATACCACATACCCA (sugars k3 d10 k3, PS) | 41% | 
TTGGGACCAATATAAT (sugars k3 d10 k3, PS) | 18% | 
CTGTGGCATGGCTACA (sugars k3 d1 m1 d8 k3, PS) | 35% | 
GGACAAATGCCTGAGA (sugars k3 d10 k3, PS) | 52% | 
TAGAACACTTGCCTCA (sugars k3 d10 k3, PS) | 31% | 
GCTTTAGCTTAAACTC (sugars k3 d10 k3, PS) | 72% | 
GCCTAAACATTTCTCA (sugars k3 d10 k3, PS) | 2% | 
GGCAAAAGGAGCCAGT (sugars k3 d10 k3, PS) | 43% | 
GGCATTAGATGGTAAG (sugars k3 d10 k3, PS) | 62% | 
TGCAAGATTTACTTCC (sugars k3 d10 k3, PS) | 45% | 
CTCTTATCTGATATGA (sugars k3 d10 k3, PS) | 7% | 
TCATAAAGGTGGGATA (sugars k3 d10 k3, PS) | 40% | 
CTCGCGAGATGATGTT (sugars k3 d10 k3, PS) | 40% | 

Sequence | target mRNA inhibition (1 µM) | also measured
GGCTACAGATTGGAAT (sugars k3 d10 k3, PS) | 23% | 
TCCTGTGTTAGCTTTA (sugars k3 d1 m1 d8 k3, PS) | 72% | 
CATCGATGGAAGAAGT (sugars k3 d10 k3, PS) | 16% | 
GTTCTGATGTCAGACC (sugars k3 d10 k3, PS) | 55% | 
CTTTTGGTGGACTTCA (sugars k3 d10 k3, PS) | 10% | 
ATGAAGTTAGTATAGT (sugars k3 d9 k3 e1, PS) | 61% | 
TCATTTTTAATACGAC (sugars k3 d10 k3, PS) | 48% | 
GCAGAAATTCACCTTG (sugars k3 d1 m1 d8 k3, PS) | 54% | 
GCTCCAGTAATGAGAA (sugars k3 d10 k3, PS) | 34% | 
TACAGTAGGCAGTTTC (sugars k3 d10 k3, PS) | 60% | 
GTTTACAAGTAAGAAC (sugars k3 d10 k3, PS) | 42% | 
TATAACTACAAGAGGT (sugars k3 d10 k3, PS) | 46% | 
CATTCTGTGTTCTTGT (sugars k3 d10 k3, PS) | 60% | 
ATGTAAAGTTTGTTAG (sugars k3 d10 k3, PS) | 12% | 
ACTAATATTGAGGCAC (sugars k3 d10 k3, PS) | 19% | 
ATAAAGCTTTGCAGCA (sugars k3 d10 k3, PS) | 54% | 
CTATATACATCCAAGT (sugars k3 d10 k3, PS) | 6% | 
CTAGAACACTTGCCTC (sugars k3 d10 k3, PS) | 25% | 
CTGTGGCATGGCTACA (sugars k3 d10 k3, PS) | 66% | 
AGGATGTTGACCTCAA (sugars k3 d10 k3, PS) | 4% | 
TCAGTATCCCCTCAAA (sugars k3 d10 k3, PS) | 64% | 
CTGAGAAGATCGGCTG (sugars k3 d10 k3, PS) | 37% | 
GAGTCGGTCACCTTTC (sugars k3 d9 k3 e1, PS) | 74% | target mRNA inhibition (0.02 µM): 0%; target mRNA inhibition (0.078 µM): 0%; target mRNA inhibition (0.313 µM): 0%; target mRNA inhibition (1.25 µM): 51%; target mRNA inhibition (5 µM): 76%
CTAAAATTGTCTAAAC (sugars k3 d9 k3 e1, PS) | 7% | 
CTATTAGTTGGCCTGC (sugars k3 d10 k3, PS) | 32% | 

Sequence | target mRNA inhibition (1 µM) | also measured
CGTTTAAATCAGAGCA (sugars k3 d10 k3, PS) | 54% | 
AAGTAGGAGTAGATGA (sugars k3 d10 k3, PS) | 0% | 
CTGGGACCAAGGATAT (sugars k3 d10 k3, PS) | 32% | 
CATAAGGCCGATTCAT (sugars k3 d10 k3, PS) | 32% | 
AATCACAAGTAAGGTA (sugars k3 d9 k3 e1, PS) | 63% | 
TAATTTTTGAGCCTAA (sugars k3 d10 k3, PS) | 41% | 
CTATAACTGGAAGGAG (sugars k3 d10 k3, PS) | 43% | 
TGTGGCATGGCTACAG (sugars kkdddddddddkekek, PS) | 22% | 
TTCCATAAAGCTGGAT (sugars k3 d10 k3, PS) | 5% | 
CCTTATACTGAAGGCT (sugars k3 d10 k3, PS) | 41% | 
CACAAGTAAGGTAAAG (sugars k3 d1 m1 d8 k3, PS) | 43% | 
TAATATTGAGGCACTG (sugars k3 d10 k3, PS) | 33% | 
TGCATTAATGCCACCC (sugars k3 d10 k3, PS) | 22% | 
AGAGGGTCCACTTTTG (sugars k3 d10 k3, PS) | 34% | 
TCTTGACAATGGTTGC (sugars kkdddddddddkekek, PS) | 37% | 
TTAGTTGGTAGCTTGC (sugars k3 d10 k3, PS) | 72% | 
TATGAAGTTAGTATAG (sugars k3 d9 k3 e1, PS) | 13% | 
TATATGTTGATGTTAC (sugars k3 d10 k3, PS) | 34% | 
ACTGAGTAAACGACTC (sugars k3 d10 k3, PS) | 45% | 
ACTTGAACAGTCTTAA (sugars k3 d9 k3 e1, PS) | 60% | 
ATCCCGTTCTTGCCCA (sugars k3 d10 k3, PS) | 30% | 
AGTACAGTTCCTTTTC (sugars k3 d1 m1 d8 k3, PS) | 56% | 
AGAGGCTAGGGAAATC (sugars k3 d9 k3 e1, PS) | 68% | 
